Laboratory results from patent US11053608B2, “Combinatorial derivatives of RNA oligonucleotides” (priority 2017, dated 2021).

Columns and labels:
skin wounds = test: Wound healing activity; type: in vivo, male Vistar white rats
Method: The study of the wound healing properties of the compositions was carried out on male Vistar white rats. In 38 animals that were anesthetized with diethyl ether for 2-4 min., A 2 by 2 cm skin area was cut out on the dorsal side of the body, behind the right shoulder blade. The skin was taken with tweezers, it was pulled back, the skin fragment was cut 2 cm in size, wound depth 2 mm, the average area of the wound was 4±1.0 cm^2.
The resulting wounds of a polygonal shape were intensively bleeding. Then the wounds of animals first and second groups (10 in each), D1 and D2 compositions were applied.
The wounds of rats of the 3rd group were treated with Dexpanthenol (DP), the 4th group of 8 animals was the control group, the wounds of these animals were not treated. The compositions in contact with blood formed a gel form, it was covering entire surface of the wound and capture a small fragment of surrounding skin around the wound.
The glue BF-6 was applied on top of the gel, dried and the animals were released into cells.
The planimetric studies of the wounds were carried out from 1st day of experiment on the 3rd, 6th, 9th, 11th, and 13th days, which made it possible to judge the features of reparative processes.
The measurement of the area of the wounds was carried out as follows: on the celluloid film which was covering the wound entirely, contours were applied, after which the area of the wound surface was determined using graph paper.

HeLa-2 tumor cells = test: Minimum active dose and cytopathic effect in HeLa-2 cell culture; type: cell-based; settings: minimum amount causing degeneration of 90-95% of the cells; medium 199; monitored 5 days
Method: Determination of the anticancer activity of MATR in the cell culture was performed in a HeLa-2 cell culture. The different amount of MATR from 2 to 12 μg/ml of medium was added to medium 199. (see table 1). For the control a culture was without MATR. Cell cultures were monitored for 5 days with daily viewing. The minimum active dose (MAD) of MATR was considered to be its minimum amount, which caused degeneration of 90-95% of the cells (Table 2)

Schwez leukemia = test: Antitumor activity on Shvets leukemia; type: in vivo, Outbred white rats; settings: injected dose 9.1*3 = 27.3 mg/kg intraperitoneal
[1] = Toxic dose LD50 and lethal dose LD100; type: in vivo
Method: The compositions (MATR and Taxotere) were administered intraperitoneally three times with an interval of two hours in 0.5 ml. For MATR injection aqueous solution was used. The total doses of the compositions were 34.0, 68.0, 84.0, 102.0 and 136 mg/kg. The number of dead animals in each group was confirmed every 24-48 hours. The calculation of the toxic dose, LD50, was carried out according to the protocol. The lethal dose, […], was determined experimentally.

SMILES | Wound Area (S) during the observation (skin wounds; 1-3 days) | Wound Area (S) during the observation (skin wounds; 3-6 days) | Wound Area (S) during the observation (skin wounds; 6-9 days) | Wound Area (S) during the observation (skin wounds; 9-11 days) | Wound Area (S) during the observation (skin wounds; 11-13 days) | MAD (minimum active dose) (HeLa-2 tumor cells) | Tumor volume (Schwez leukemia) | LD50 ([1]; in vivo, intraperitoneal) | toxicity of the control compound (dose in brackets) ([1]; intraperitoneally three times with an interval of two hours)
CC(C)(CO)[C@@H](O)C(=O)NCCCO [DP, Dexpanthenol] | 4.1 ± 1.0 cm2 | 3.2 ± 0.3 cm2 | 2.4 ± 0.3 cm2 | 1.0 ± 0.3 cm2 | 0.3 ± 0.1 cm2 |  |  |  | 
CC(=O)O[C@@]12CO[C@@H]1C[C@H](O)[C@@]1(C)C(=O)[C@H](O)C3=C(C)[C@@H](OC(=O)[C@H](O)[C@@H](NC(=O)OC(C)(C)C)c4ccccc4)C[C@@](O)([C@@H](OC(=O)c4ccccc4)[C@H]21)C3(C)C [Taxotere] |  |  |  |  |  | 10 µg/mL | 0.73 cm3 | 120 mg/kg | 120 mg/kg
